Where two headings read alike, the source gives them in different places.
System: effect of IL-1β on SEAP reporter gene activity in selected NIH3T3 cells
Experiment: IL-1β-induced SEAP reporter gene activity in selected NIH3T3 cell clones
Format: cell-based
Settings: IL-1β-stimulated selected NIH3T3 cells, read-out: IC50 value of the inhibition of SEAP activity

SMILES | IC50 | IC50 (Mus musculus)
COc1cccc(-c2cc(=O)c3ccccc3o2)c1N [PD98059] | ~1000 nM | 
N#CC(=C(/N)Sc1ccccc1N)/C(C#N)=C(\N)Sc1ccccc1N [U0126] |  | ~1000 nM
Cc1ccc(-c2cc(C(F)(F)F)nn2-c2ccc(S(N)(=O)=O)cc2)cc1 [celecoxib] |  | ~200 nM
